We go through 20 compounds from PubChem BioAssay (NCI).

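Tested at 5 concentrations; 48 h exposure; 96-well plates; endpoints linearly interpolated, else capped at highest concentration. Abbreviation: GI50, concentration required for 50% inhibition of growth. Definition used: TGI = concentration required for complete inhibition of growth.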

Among the test systems are DU-145 prostate; NCI-H522 lung; UACC-62 melanoma; A549 NSCLC; BT-549 breast; SK-MEL-2 melanoma; HL-60(TB) leukemia; SF-539 CNS; PC-3 prostate; CAKI-1 renal.
Holding throughout (assay): growth of human tumour cells (NCI), 48 h

For `CN(C)CCCn1c2c(c3ccncc3c1=O)C(=O)c1ccccc1-2`, the GI50 in the assay on DU-145 prostate was 0.988 µM; in the assay with NCI-H522 lung it was 1.61 µM; with UACC-62 melanoma it was 1.22 µM; in the assay on A549 NSCLC it was 1 µM; with BT-549 breast, 2.09 µM; in the assay on SK-MEL-2 melanoma it was 2.18 µM. Also, the GI50 was 0.858 µM in the assay on HL-60(TB) leukemia, 0.714 µM with SF-539 CNS, 1.14 µM with PC-3 prostate and 0.572 µM in the assay on CAKI-1 renal. Also, the TGI in the assay on DU-145 prostate worked out at 10.6 µM; in the assay with NCI-H522 lung, 11.9 µM; in the assay on UACC-62 melanoma, 3.74 µM; in the assay on A549 NSCLC it was 38.6 µM; in the assay on BT-549 breast, 13.1 µM; with SK-MEL-2 melanoma, 6.96 µM. The TGI in the assay with HL-60(TB) leukemia amounted to 8.66 µM; with SF-539 CNS, 5.95 µM; in the assay on PC-3 prostate, 9.78 µM; in the assay on CAKI-1 renal, 5.53 µM.
Consider `C=CCn1c(=O)c(-c2ccccc2)c(O)c2ccccc21`, for which the TGI in the assay on DU-145 prostate, in the assay with NCI-H522 lung, with A549 NSCLC, with BT-549 breast, in the assay with HL-60(TB) leukemia and with SF-539 CNS was greater than 100 µM in each case. The TGI in the assay with PC-3 prostate and in the assay with CAKI-1 renal was greater than 100 µM each time.
With `CCN1CCc2sc3[nH]c(=S)n(C)c(=O)c3c2C1`, the TGI in the assay with DU-145 prostate, in the assay with NCI-H522 lung, in the assay on UACC-62 melanoma, with A549 NSCLC, with BT-549 breast and in the assay on SK-MEL-2 melanoma was greater than 100 µM each time. For the same compound, the TGI in the assay on HL-60(TB) leukemia was 1.83 µM; with SF-539 CNS, greater than 100 µM; in the assay with PC-3 prostate it was greater than 100 µM; with CAKI-1 renal, greater than 100 µM.
Turning to `COc1cc(C=Nc2ccc(Oc3ccc(Cl)cc3)c(Cl)c2)cc(OC)c1OC`, the TGI was 38.6 µM in the assay on DU-145 prostate; 28.1 µM with NCI-H522 lung; 30.4 µM in the assay with UACC-62 melanoma; 44.7 µM in the assay on A549 NSCLC; 38 µM with BT-549 breast; 45.9 µM in the assay on SK-MEL-2 melanoma. Moreover, the TGI in the assay on HL-60(TB) leukemia came out at 48.6 µM; in the assay with SF-539 CNS it was 35.2 µM; in the assay with PC-3 prostate it was 36.2 µM; in the assay on CAKI-1 renal, 72 µM.
Consider `CC(C)(Oc1ccc(C2C[C@H]2Cl)cc1)C(=O)O` (stereo partly specified), for which the TGI with DU-145 prostate, in the assay on NCI-H522 lung, with UACC-62 melanoma, in the assay with A549 NSCLC, in the assay on BT-549 breast and in the assay on SK-MEL-2 melanoma was greater than 100 µM each time. Besides, the TGI in the assay on HL-60(TB) leukemia, in the assay with SF-539 CNS, in the assay on PC-3 prostate and in the assay on CAKI-1 renal was greater than 100 µM each time.
Take `Cc1ccc(-n2cc(-c3ccc(Cl)cc3)c3c(NNC(=S)NCc4ccccc4)ncnc32)cc1`: the TGI in the assay on DU-145 prostate is greater than 100 µM; with NCI-H522 lung, 13.2 µM; in the assay with UACC-62 melanoma it was 64.8 µM; in the assay on A549 NSCLC, 41.1 µM; in the assay on BT-549 breast, 83 µM; in the assay with SK-MEL-2 melanoma, 20.1 µM. Also, the TGI in the assay on HL-60(TB) leukemia was greater than 100 µM; in the assay with SF-539 CNS, 30.7 µM; with PC-3 prostate, 23.1 µM; with CAKI-1 renal, 29.1 µM.
For the compound `COc1ccc(N=Nc2ccc3oc(=O)c(C(=O)Nc4ccc(OC)cc4)cc3c2)cc1`, the TGI is 53.9 µM with DU-145 prostate; 75.6 µM in the assay with NCI-H522 lung; greater than 100 µM with A549 NSCLC; 39 µM with BT-549 breast; 39.5 µM in the assay on SK-MEL-2 melanoma; 30.8 µM in the assay with HL-60(TB) leukemia. Besides, the TGI in the assay with SF-539 CNS is 22.8 µM; in the assay on PC-3 prostate, 43.1 µM; with CAKI-1 renal, greater than 100 µM.
For `COc1cc(NS(C)(=O)=O)ccc1N1Cc2cnc3ccc4[nH]ccc1c4c23`, the TGI in the assay with DU-145 prostate is greater than 100 µM; with NCI-H522 lung it was greater than 100 µM; in the assay on UACC-62 melanoma, greater than 100 µM; with A549 NSCLC it was greater than 100 µM; in the assay on BT-549 breast, greater than 100 µM; in the assay on SK-MEL-2 melanoma, 64.6 µM. The TGI in the assay on HL-60(TB) leukemia, in the assay with PC-3 prostate and in the assay on CAKI-1 renal was greater than 100 µM each time.
Take `CC(=O)CC(=O)Nn1c(-c2cccs2)nc2ccc(I)cc2c1=O`: the TGI in the assay on DU-145 prostate was greater than 96.6 µM; with NCI-H522 lung, greater than 87.5 µM; in the assay with UACC-62 melanoma it was greater than 85 µM; in the assay with A549 NSCLC, greater than 100 µM; in the assay with BT-549 breast, greater than 71 µM; in the assay with SK-MEL-2 melanoma, greater than 100 µM. Further, the TGI was greater than 100 µM in the assay with HL-60(TB) leukemia, 34.4 µM in the assay with SF-539 CNS, greater than 100 µM in the assay with PC-3 prostate and greater than 74 µM with CAKI-1 renal. In addition, the GI50 in the assay with SF-539 CNS is 13.8 µM.
`COc1cc(OC)cc(N(C)Cc2cnc3nc(N)nc(N)c3c2C)c1`: the TGI with DU-145 prostate is greater than 100 µM; in the assay on NCI-H522 lung, 43.6 µM; in the assay with UACC-62 melanoma it was greater than 100 µM; in the assay with A549 NSCLC, greater than 100 µM; in the assay with BT-549 breast, greater than 100 µM; in the assay on SK-MEL-2 melanoma it was greater than 100 µM. The TGI is greater than 100 µM in the assay on HL-60(TB) leukemia, 4.96 µM in the assay with SF-539 CNS, greater than 100 µM with PC-3 prostate and greater than 100 µM with CAKI-1 renal.
In the case of `COC(=O)[C@H]1ON2O[C@H](OC3CCCC[C@@H]3c3ccccc3)C[C@@H]3CC[C@H]1[C@@]32C` (stereo partly specified), the TGI in the assay with DU-145 prostate, in the assay with NCI-H522 lung, in the assay with UACC-62 melanoma, in the assay on A549 NSCLC, with BT-549 breast and in the assay with SK-MEL-2 melanoma was greater than 100 µM throughout. The results for the TGI in the assay with HL-60(TB) leukemia, in the assay with PC-3 prostate and with CAKI-1 renal were 98.5 µM, greater than 100 µM and greater than 100 µM, respectively.
Take `C=CC(C)(C)c1cc([C@@H]2COc3cc(O)ccc3C2=O)c(O)c(OC)c1OC`: the TGI in the assay on DU-145 prostate was 30.3 µM; with NCI-H522 lung, 20.9 µM; with UACC-62 melanoma it was 27.5 µM; with A549 NSCLC, 52 µM; in the assay with BT-549 breast, 25.1 µM; in the assay with SK-MEL-2 melanoma it was 33.3 µM. Besides, the TGI in the assay on HL-60(TB) leukemia was 44.2 µM; with SF-539 CNS, 44 µM; with PC-3 prostate, 34.8 µM.
As to `N#C/C(=C/NC(=S)Nc1ccc(S(N)(=O)=O)cc1)C(N)=O`, the TGI with DU-145 prostate, in the assay on NCI-H522 lung, in the assay on UACC-62 melanoma, with A549 NSCLC, with BT-549 breast and with HL-60(TB) leukemia was greater than 100 µM in each case. For the same compound, the TGI in the assay on SF-539 CNS, in the assay on PC-3 prostate and with CAKI-1 renal was greater than 100 µM in each case.
Take `C=C(Cl)C(Cl)(CBr)CCC(Cl)C(C)C` (stereo unspecified): the TGI with DU-145 prostate is 3.77 µM; with NCI-H522 lung, 15.8 µM; in the assay with UACC-62 melanoma it was 14 µM; in the assay with A549 NSCLC it was 27.1 µM; in the assay with BT-549 breast it was 27.9 µM; with SK-MEL-2 melanoma, 4.29 µM. In addition, the results for the TGI with SF-539 CNS, with PC-3 prostate and with CAKI-1 renal were 2.59 µM, 5.8 µM and 5.74 µM, respectively.
Regarding `CN1CCN(c2nc3c(c(=O)n(C)c(=O)n3C)n2C)CC1`, the TGI in the assay on DU-145 prostate, in the assay on NCI-H522 lung, in the assay on UACC-62 melanoma, in the assay with A549 NSCLC, with BT-549 breast and in the assay on SK-MEL-2 melanoma was greater than 100 µM each time. Further, the TGI in the assay on HL-60(TB) leukemia, with PC-3 prostate and with CAKI-1 renal was greater than 100 µM each time.
`CCC1(CC)C(=O)N(C(=O)c2ccc(Cl)cc2)N(C(=O)c2ccccc2Cl)C1=O`: the TGI in the assay on DU-145 prostate is greater than 100 µM; with NCI-H522 lung, 48.1 µM; in the assay on UACC-62 melanoma it was greater than 100 µM; with A549 NSCLC, greater than 100 µM; with BT-549 breast it was greater than 100 µM; with SK-MEL-2 melanoma, greater than 100 µM. Moreover, the TGI in the assay with HL-60(TB) leukemia, in the assay on PC-3 prostate and in the assay with CAKI-1 renal was greater than 100 µM in each case.
Consider `COC(=O)C1(C(=O)OC)CC2=C(S(=O)(=O)c3ccccc3)C[C@@H](C#N)[C@H]2C1`, for which the TGI in the assay with DU-145 prostate, with NCI-H522 lung, with A549 NSCLC, in the assay on BT-549 breast, in the assay on SK-MEL-2 melanoma and in the assay with HL-60(TB) leukemia was greater than 100 µM throughout. Also, the TGI in the assay with SF-539 CNS, with PC-3 prostate and in the assay with CAKI-1 renal was greater than 100 µM throughout.
In the case of `O=c1[nH]/c(=C/c2ccc(OCc3ccccc3)cn2)c(=O)[nH]/c1=C/c1cccnc1`, the TGI in the assay on DU-145 prostate was 2.08 µM; in the assay with NCI-H522 lung, 0.588 µM; with A549 NSCLC, greater than 100 µM; with BT-549 breast, greater than 100 µM; in the assay with SK-MEL-2 melanoma, greater than 44.1 µM; in the assay with HL-60(TB) leukemia, 0.541 µM. For the same compound, the TGI in the assay with PC-3 prostate and in the assay with CAKI-1 renal was greater than 100 µM throughout.
On to `O=C(CSCC(=O)N/N=C\c1cc(Br)cc(Br)c1O)N/N=C\c1cc(Br)cc(Br)c1O`, for which the TGI in the assay on DU-145 prostate is greater than 100 µM; in the assay with NCI-H522 lung, 50.9 µM; in the assay with UACC-62 melanoma, 39.7 µM; in the assay with A549 NSCLC, greater than 100 µM; in the assay with BT-549 breast, greater than 100 µM; in the assay on SK-MEL-2 melanoma, 42.7 µM. Moreover, the TGI in the assay on SF-539 CNS was 78.8 µM; in the assay with PC-3 prostate, greater than 100 µM; in the assay with CAKI-1 renal it was 73 µM.
Turning to `N#Cc1ccc(/C=C2\Cc3ccccc3C2=O)cc1`, the TGI in the assay on DU-145 prostate, in the assay with NCI-H522 lung, in the assay with UACC-62 melanoma, in the assay with A549 NSCLC, in the assay with BT-549 breast and in the assay with HL-60(TB) leukemia was greater than 100 µM in each case. For the same compound, the TGI in the assay with SF-539 CNS, with PC-3 prostate and with CAKI-1 renal was greater than 100 µM throughout.
